# Assay results published in article PMC2729922, “Pharmacological Targeting of Native CatSper Channels Reveals a Required Role in Maintenance of Sperm Hyperactivation” (PLoS ONE, 2009).
# Target: T1, CatSper channel (CatSper1) (Mus musculus, UniProt A2ARP9+Q80W99+Q8BVN3+Q91ZR5)
# T1 construct: native channel in mouse sperm; with CatSper2, CatSper3, CatSper4
# Assay: whole-sperm patch clamp of native CatSper currents; also SBFI and fura-2 photometry (abstract IC50 […] by optical assay)
# Type: cell-based
# T1 sequence (Q91ZR5 whole entry): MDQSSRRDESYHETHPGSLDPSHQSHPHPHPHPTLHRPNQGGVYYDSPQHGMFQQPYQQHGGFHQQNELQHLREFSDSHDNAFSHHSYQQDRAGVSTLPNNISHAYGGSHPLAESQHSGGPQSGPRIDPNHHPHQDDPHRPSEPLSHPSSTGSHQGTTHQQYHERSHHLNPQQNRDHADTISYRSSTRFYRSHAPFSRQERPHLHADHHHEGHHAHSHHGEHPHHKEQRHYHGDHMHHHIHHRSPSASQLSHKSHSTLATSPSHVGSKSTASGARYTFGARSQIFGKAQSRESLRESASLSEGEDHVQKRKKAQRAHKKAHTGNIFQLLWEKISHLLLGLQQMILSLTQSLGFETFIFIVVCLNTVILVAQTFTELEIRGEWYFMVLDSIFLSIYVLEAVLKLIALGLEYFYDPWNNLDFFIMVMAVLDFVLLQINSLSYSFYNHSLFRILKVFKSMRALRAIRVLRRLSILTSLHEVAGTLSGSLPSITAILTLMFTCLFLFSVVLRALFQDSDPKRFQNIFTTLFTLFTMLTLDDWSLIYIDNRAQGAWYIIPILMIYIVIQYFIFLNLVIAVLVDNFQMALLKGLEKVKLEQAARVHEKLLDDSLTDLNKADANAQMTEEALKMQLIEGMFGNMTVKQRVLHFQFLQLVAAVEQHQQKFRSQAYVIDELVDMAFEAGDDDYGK
# T1 sequence (A2ARP9 whole entry): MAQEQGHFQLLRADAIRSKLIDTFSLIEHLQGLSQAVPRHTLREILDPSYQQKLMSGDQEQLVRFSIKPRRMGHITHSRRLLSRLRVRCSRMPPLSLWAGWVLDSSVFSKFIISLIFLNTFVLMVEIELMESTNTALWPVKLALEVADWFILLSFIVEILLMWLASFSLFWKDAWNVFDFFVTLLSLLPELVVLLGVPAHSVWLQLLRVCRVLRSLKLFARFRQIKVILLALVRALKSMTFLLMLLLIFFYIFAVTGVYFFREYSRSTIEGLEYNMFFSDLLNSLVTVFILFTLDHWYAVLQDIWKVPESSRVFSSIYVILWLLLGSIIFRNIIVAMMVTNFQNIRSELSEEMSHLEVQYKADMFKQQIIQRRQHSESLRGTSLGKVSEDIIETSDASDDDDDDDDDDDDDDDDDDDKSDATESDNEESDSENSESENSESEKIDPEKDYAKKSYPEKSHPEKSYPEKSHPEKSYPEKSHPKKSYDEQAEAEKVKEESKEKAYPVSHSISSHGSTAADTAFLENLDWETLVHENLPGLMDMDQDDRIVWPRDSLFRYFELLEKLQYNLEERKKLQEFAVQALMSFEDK
# T1 sequence (Q80W99 whole entry): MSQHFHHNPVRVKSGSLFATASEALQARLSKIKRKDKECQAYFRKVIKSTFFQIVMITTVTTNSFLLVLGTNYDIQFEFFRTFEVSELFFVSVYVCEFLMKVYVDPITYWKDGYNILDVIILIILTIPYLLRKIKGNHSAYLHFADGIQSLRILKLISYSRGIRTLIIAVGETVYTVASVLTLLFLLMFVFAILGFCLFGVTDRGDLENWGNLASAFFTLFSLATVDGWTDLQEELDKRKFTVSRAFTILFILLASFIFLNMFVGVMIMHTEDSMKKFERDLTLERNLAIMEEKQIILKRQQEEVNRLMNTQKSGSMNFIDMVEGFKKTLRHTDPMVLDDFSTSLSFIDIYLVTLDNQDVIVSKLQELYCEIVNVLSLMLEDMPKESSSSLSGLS
# T1 sequence (Q8BVN3 whole entry): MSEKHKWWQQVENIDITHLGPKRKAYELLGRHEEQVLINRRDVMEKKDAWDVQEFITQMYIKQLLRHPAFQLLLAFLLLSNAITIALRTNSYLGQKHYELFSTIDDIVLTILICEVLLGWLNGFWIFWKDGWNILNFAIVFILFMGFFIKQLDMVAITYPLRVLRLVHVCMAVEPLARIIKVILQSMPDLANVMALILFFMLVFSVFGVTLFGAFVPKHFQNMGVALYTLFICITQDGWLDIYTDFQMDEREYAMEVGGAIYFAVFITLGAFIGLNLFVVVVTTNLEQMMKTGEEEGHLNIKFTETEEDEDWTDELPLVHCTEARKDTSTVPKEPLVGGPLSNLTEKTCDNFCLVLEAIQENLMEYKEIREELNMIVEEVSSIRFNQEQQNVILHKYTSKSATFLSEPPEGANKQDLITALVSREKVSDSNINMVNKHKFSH
structure (smiles),measurement,value
"O=C(c1cccs1)c1no[n+]([O-])c1C(=O)c1cccs1 [HC-056456, 3,4-bis(2-thienylcarbonyl)-1,2,5-oxadiazole-2-ium-2-olate]",IC50,~15 µM
